From patent US20130309187A1, “SKIN-WHITENING AGENT CONTAINING 3-HYDROXY-2-PYRONE” (NICHIREI BIOSCIENCES INC., priority 2011, published 2013)

Assays:
[1] = test system: B16 mouse melanoma 4A5 cells; experiment: Viable cell count (protein amount, DC Protein Assay) in B16 mouse melanoma 4A5 cells
Method: (§1) B16 mouse melanoma 4A5 cells (RIKEN) were seeded at 5.0 x 10^4 cells/well on a 6-well plate and cultured in Dulbecco's modified Eagle's medium (DMEM) supplemented with 10% FBS at 37° C. in the presence of 5% CO2. The medium was exchanged with fresh medium supplemented with the sample on the following day, and culture was conducted in the medium supplemented with the sample for an additional 5 days. The medium was removed 6 days after the initiation of culture, and the cells were collected by using trypsin. The collected cells were suspended in 1N sodium hydroxide, and melanin was extracted via heating. The absorbance of the melanin extract was measured at 405 nm, and the melanin level was quantified with the calibration curve of the melanin reagent (Sigma). In addition, the amount of proteins in the collected cells was determined using the DC Protein Assay KIT (BIO-RAD) and used as the indicator for the viable cell count.
as §1, with “5.0×10^4” for “5.0 x 10^4”

[2] = test system: B16 mouse melanoma 4A5 cells; experiment: Inhibition of melanin production in B16 mouse melanoma 4A5 cells; type: cell-based; conditions: for Melanin level: 5 days culture with sample, relative to control designated as 100
Method: as §1
as §1, with “5.0×10^4” for “5.0 x 10^4”

[3] = test system: tyrosinase; experiment: Inhibitory effects on tyrosinase activity (L-tyrosine substrate, time course of absorbance at 475 nm, method of Patent Document 1); type: biochemical; conditions: Experiment 4, FIG. 3, aqueous solution of 1% sample, 0-15 min
Method: The experiment was carried out in the same manner as that described in Patent Document 1. An aqueous solution of 1% 3H2P, an aqueous solution of 1% coumalin (Tokyo Chemical Industry Co., Ltd.), an aqueous solution of 1% coumalic acid (Tokyo Chemical Industry Co., Ltd.), and an aqueous solution of 0.01% kojic acid were prepared. Subsequently, 1.45 ml of a substrate-sample mixture comprising an aqueous solution of L-tyrosine (0.3 mg/ml), a sample solution of 3H2P, etc., and McIlvaine buffer (pH 6.8) was introduced into a test tube, 0.05 ml of a tyrosinase solution (1 mg/ml) was added thereto, the resultant was mounted on a spectrophotometer capable of maintaining a constant temperature of 37° C., and the absorbance was measured at 475 nm with the elapse of time (once every minute between 0 min and 15 min).

[4] = test system: tyrosinase (Sigma); experiment: Inhibition rate of tyrosinase activity (L-DOPA substrate, absorbance 475 nm); type: biochemical
Method: In the experiment, 0.2 ml of an enzyme solution containing 72 units/ml tyrosinase (Sigma) was mixed with 1.0 ml of a substrate mixture (i.e., a 2:2:1 mixture of a 6 mM L-DOPA solution, the test composition with the adjusted concentration (hereafter referred to as the “sample”), and phosphate buffer), the absorbance was measured at 475 nm at 37° C. at 0 min and […], and the inhibition rate of tyrosinase activity was determined using the equation shown below.
Inhibition rate of tyrosinase activity (%)=(1−(the difference in the absorbance of the sample between […] and 3 min)/(the difference in the absorbance of the blank between 0 min and 3 min)×100
(§2) In the experiment, 0.2 ml of an enzyme solution containing 72 units/ml tyrosinase (Sigma) was mixed with 1.0 ml of a substrate mixture (i.e., a 2:2:1 mixture of a 6 mM L-DOPA solution, the sample with the adjusted concentration, and phosphate buffer (pH 6.8)), the absorbance was measured at 475 nm at 37° C. at 0 min and 3 min, and the inhibition rate of tyrosinase activity was determined using the equation shown below.
Inhibition rate of tyrosinase activity (%)=(1−(the difference in the absorbance of the sample between 0 min and 3 min)/(the difference in the absorbance of the blank between 0 min and 3 min)×100
as §2, with “buffer),” for “buffer (pH 6.8)),”

[5] = Experiment 3, 1 μg/ml, relative to control designated as 100
[6] = Experiment 3, 5 μg/ml, relative to control designated as 100
[7] = Experiment 3, 10 μg/ml, relative to control designated as 100
[8] = Experiment 7, FIG. 6, 3H4P, 3H2P and kojic acid compared
[9] = Experiment 6, FIG. 5, kojic acid, 3H2P and 3H4P compared

SMILES | Cell count [1, 5] | Cell count [1, 6] | Cell count [1, 7] | Melanin level ([2]; Experiment 3, 1 μg/ml) | Melanin level ([2]; Experiment 3, 5 μg/ml) | Melanin level ([2]; Experiment 3, 10 μg/ml) | inhibitory effects on tyrosinase activity [3] | inhibitory effects on melanin production [2, 8] | inhibitory effects on tyrosinase activity [4, 9] | Melanin level ([2]; Experiment 7, 50 μg/ml) | Melanin level ([2]; Experiment 7, 100 μg/ml) | also measured
OC[C@H]1O[C@@H](Oc2ccc(O)cc2)[C@H](O)[C@@H](O)[C@@H]1O [Arbutin, arbutin] | 96.2 | 91.7 | 86.0 | 82.4 | 43.0 | 23.9 |  |  |  |  |  | 
O=c1occcc1O [3H2P, 3-hydroxy-2-pyrone] | 92.2 | 81.9 | 72.4 | 71.7 | 34.3 | 20.7 | significantly stronger than those of coumalin and coumalic acid | stronger inhibitory effects on melanin production than such γ-pyrone compounds | equivalent to those of 3H4P |  |  | Cell count ([1]; Experiment 7, 1 μg/ml, relative to control designated as 100): 102.0; Cell count ([1]; Experiment 7, 5 μg/ml, relative to control designated as 100): 98.7; Cell count ([1]; Experiment 7, 10 μg/ml, relative to control designated as 100): 93.8; inhibitory effects on melanin production ([2]; Experiment 3, FIG. 2, compared with arbutin and kojic acid): stronger than those of kojic acid and equivalent to those of arbutin; concentration at which inhibitory effects on melanin production are exerted ([2]; Experiment 3, 1 ppm = 1 μg/ml, 0.0001%): ≤ 1 ppm; Melanin level ([2]; Experiment 7, 1 μg/ml): 77.2; Melanin level ([2]; Experiment 7, 5 μg/ml): 42.7; Melanin level ([2]; Experiment 7, 10 μg/ml): 29.6; inhibitory effects on tyrosinase activity ([4]; Experiment 2, FIG. 1, compared with kojic acid and ascorbic acid): equivalent to those of ascorbic acid, although such effects are somewhat weaker than those of kojic acid; inhibitory effects on tyrosinase activity ([4]; Experiment 5, FIG. 4, final concentrations 0.3%, 0.1% and 0.033%): apparently stronger than those of coumalin and coumalic acid
O=c1cc(CO)occ1O [Kojic acid, kojic acid] |  |  |  |  |  |  |  |  | strongest inhibitory effects on tyrosinase activity | 85.6 | 65.3 | Cell count ([1]; Experiment 3, 50 μg/ml, relative to control designated as 100): 80.2; Cell count ([1]; Experiment 3, 100 μg/ml, relative to control designated as 100): 74.1; Cell count ([1]; Experiment 7, 50 μg/ml, relative to control designated as 100): 80.2; Cell count ([1]; Experiment 7, 100 μg/ml, relative to control designated as 100): 74.1; Melanin level ([2]; Experiment 3, 50 μg/ml): 76.5; Melanin level ([2]; Experiment 3, 100 μg/ml): 65.7
O=C(O)c1ccc(=O)oc1 [coumalic acid] |  |  |  |  |  |  | strong inhibitory effects |  |  |  |  | 
O=c1cccco1 [coumalin] |  |  |  |  |  |  | insignificant levels of inhibitory effects |  |  |  |  | 
O=c1ccocc1O [3H4P, 3-Hydroxy-4-pyrone] |  |  |  |  |  |  |  | equivalent to those of kojic acid |  | 88.8 | 50.9 | Cell count ([1]; mouse, 5 days, 50 μg/ml): 89.7; Cell count ([1]; mouse, 5 days, 100 μg/ml): 84.4
